Key:
Assay type in all cases: cell-based, human
gene-transferred cell = test: Provirus copy number of the transferred gene; settings: Example 3, FIG. 11; ZsGreen gene, virus-bound plate; 10 nM retinoic acid; 7th day
Procedure: The provirus copy number of the transferred gene in the gene-transferred cell was measured with Provirus Copy Number Detection Primer Set. Human (manufactured by TAKARA BIO INC.). In FIG. 6, the ordinate axis indicates the copy number of the transferred gene in a gene-transferred cell. As a result, the copy number was increased by a combination of stimulation by an anti-CD3 antibody alone or fibronectin fragment/anti-CD3 antibody stimulation with addition of retinoic acid, and the increase of the copy number correlated with increase in gene transfer efficiency.
The results of measurement of the copy number of the transferred gene in the gene-transferred cell into which the gene was transferred using the virus-bound plate for gene transfer are shown in FIG. 11. In FIG. 11, the ordinate axis indicates the copy number of the transferred gene in the gene-transferred cell. As a result, the copy number under the combination condition of stimulation by an anti-CD3 antibody alone or fibronectin fragment/anti-CD3 antibody stimulation with addition of retinoic acid was about 2 times the copy number under the condition of no addition of retinoic acid. The copy number correlated with gene transfer efficiency.
The provirus copy number of the transferred gene in the cultured cells was measured using Provirus Copy Number Detection Primer Set. Human (manufactured by TAKARA BIO INC.). […]

[1] = tested on: CD8 single positive and CD4 single positive cells; test: Proportion of ZsGreen positive cells by flow cytometry; settings: Example 3, FIG. 9; gene transfer using virus-bound (fibronectin fragment) plate; 10 nM retinoic acid; 7th day
Procedure: A gene transfer operation was carried out as follows. […] The plate was cultured at 37° C. for 4 hours in a CO2 incubator. The cells after culturing were suspended at 0.1×10^6 cells/mL in a GT-T503 medium containing 1% autologous plasma, 720 IU/mL IL-2, 0.2% HSA, 2.5 μg/mL Fungizone and 10 nM retinoic acid. The resulting suspension was seeded on a 12-well plate, and cultured at 37° C. for 3 days. At the same time, a gene transfer operation and cell culture after gene transfer were similarly carried out using a cell suspension not containing retinoic acid as a control.
Regarding gene transfer using a virus-bound plate for gene transfer, the cell growth rate was measured on the 4th and 7th days, and cell surface markers, the proportion of ZsGreen positive cells and the copy number of a transferred gene were measured on the 7th day.
After initiation of stimulation of the PBMC, the cells on the 7th day in the case of gene transfer using the virus-bound plate for gene transfer, and the cells on the 6th day in the case of gene transfer by a polybrene method were reacted with a PE-Cy7-labeled anti-human CD4 antibody or an APC-Cy7-labeled anti-human CD8 antibody (manufactured by Becton Dickinson) at 4° C. for 20 minutes, washed and, then subjected to flow cytometry analysis using FACScant (manufactured by Becton Dickinson).

[2] = tested on: T2A24 cell pulsed with MAGE-A4; test: Specific cytotoxic activity of gene-transferred cells, Calcein release
Procedure: Analysis of cytotoxicity of the gene-transferred cell on a MAGE-A4-derived peptide p143 was carried out. […] The suspension was cultured at 37° C. for 1 hour. The cells were washed with a medium not containing Calcein-AM, and mixed with a 10-fold amount of K562 cells (ATCC CCL-243) to prepare Calcein-labeled target cells. The K562 cells were used in order to exclude nonspecific cytotoxic activity due to NK cells commingling with responder cells. The cells on the 10th day after initiation of culture as effector cells were stepwisely diluted with a RPMI 1640 medium containing 10% FBS so as to be 1×10^5 to 1×10^6 cells/mL. Then, 100 μL/well of the dilution was dispended into each well of a 96-well cell culture plate. The Calcein-labeled target cells were adjusted to 1×10^5/mL and added to the wells at 100 μL/well. […] From the each well, 100 μL of the culture supernatant was removed, and the amount of Calcein released into the culture supernatant was measured with a fluorescent plate reader (485 nm/538 nm). “Specific cytotoxic activity (%)” was calculated according to the following mathematical formula 1.
Specific cytotoxic activity(%)=[{(measured value of each well)−(minimum released amount)}/{(maximum released amount)−(minimum released amount)}]×100 [Mathematical formula 1] […]

PBMC = test: Cell growth rate relative to cell number at initiation of culture; settings: Example 2, FIG. 2; fibronectin fragment/anti-CD3 antibody stimulation compared with anti-CD3 antibody alone, regardless of presence or absence of retinoic acid
Procedure: A PBMC prepared from a healthy person from whom informed consent had been obtained was suspended at 0.18×10^6 cells/mL in a GT-T503 medium containing 1% autologous plasma, 720 IU/mL IL-2, 0.2% HSA, 2.5 μg/mL Fungizone and 10 nM retinoic acid. The suspension was added to the fibronectin fragment/anti-CD3 antibody-adherent plate or the anti-CD3 antibody-adherent plate at 2.65 mL/well. As controls, a cell suspension not containing retinoic acid was added to the plates. Each plate was cultured at 37° C. for 4 days in a CO2 incubator.
A gene transfer operation was carried out as follows. The PBMC which had been stimulated with an anti-CD3 antibody alone or a fibronectin fragment/an anti-CD3 antibody for 4 days was added to the virus-bound plate at 0.8×10^6 cells/2.0 mL/well. This plate was cultured at 37° C. overnight in a CO2 incubator. […]
On the 7th day after initiation of stimulation of the PBMC, the cell was seeded at 0.1×10^6 cells/mL, and cultured until the 10th day. The cell growth rate was measured on the 4th, 5th, 7th and 10th days. On the 4th day, cell surface markers before the cell was transferred to the virus-bound plate were measured. On the 10th day, cell surface markers, expression of a transferred TCR and the copy number of a transferred gene were measured. […]

Molecule	copy number of the transferred gene relative to no addition of retinoic acid (gene-transferred cell)	increase of proportion of ZsGreen positive cells as compared with no addition of retinoic acid [1]	cytotoxic activity on the specific target cells ([2]; Example 4, FIG. 15, retinoic acid stimulation group vs absence, cells on 10th day, each E/T ratio)	cytotoxic activity on the specific target cells ([2]; Example 5, FIG. 22, RR, OR and R- groups vs O-, E/T 1:1, cells on 11th day)	cell growth rate (PBMC)
CC1=C(/C=C/C(C)=C/C=C/C(C)=C/C(=O)O)C(C)(C)CCC1 [retinoic acid]	about 2 times	1.5 fold	high	higher	
fibronectin fragment: recombinant fibronectin fragment CH-296, commercially available as RetroNectin (TAKARA BIO INC.)					higher
